Results on 13 compounds are retold here after ChEMBL document CHEMBL3621155, “The status of the lysophosphatidic acid receptor type 1 (LPA1R)” (Medchemcomm, 2015).

Some results are limits rather than exact numbers.

The target of experiment [1] is T1, Lysophosphatidic acid receptor 1 (Homo sapiens, UniProt Q92633). As to the kind of experiment: Agonist activity at human LPA1 receptor transfected in RH7777 cells assessed as mobilization of Ca2+ by fluorometric analysis. The experiment is classed as functional, cell-based.
T1 sequence (Q92633 whole entry): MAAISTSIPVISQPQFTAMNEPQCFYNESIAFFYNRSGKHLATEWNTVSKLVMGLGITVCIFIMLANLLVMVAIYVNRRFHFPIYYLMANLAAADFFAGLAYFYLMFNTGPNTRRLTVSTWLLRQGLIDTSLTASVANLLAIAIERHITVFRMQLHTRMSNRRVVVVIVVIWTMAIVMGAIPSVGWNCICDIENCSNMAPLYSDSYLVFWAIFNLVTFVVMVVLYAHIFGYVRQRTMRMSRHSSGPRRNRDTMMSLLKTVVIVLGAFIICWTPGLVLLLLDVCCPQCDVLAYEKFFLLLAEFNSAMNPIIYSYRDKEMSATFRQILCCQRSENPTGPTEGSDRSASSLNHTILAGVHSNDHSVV
For experiment [2], the target named is T2, Lysophosphatidic acid receptor 3 (Homo sapiens, UniProt Q9UBY5).
T2 sequence (Q9UBY5 whole entry): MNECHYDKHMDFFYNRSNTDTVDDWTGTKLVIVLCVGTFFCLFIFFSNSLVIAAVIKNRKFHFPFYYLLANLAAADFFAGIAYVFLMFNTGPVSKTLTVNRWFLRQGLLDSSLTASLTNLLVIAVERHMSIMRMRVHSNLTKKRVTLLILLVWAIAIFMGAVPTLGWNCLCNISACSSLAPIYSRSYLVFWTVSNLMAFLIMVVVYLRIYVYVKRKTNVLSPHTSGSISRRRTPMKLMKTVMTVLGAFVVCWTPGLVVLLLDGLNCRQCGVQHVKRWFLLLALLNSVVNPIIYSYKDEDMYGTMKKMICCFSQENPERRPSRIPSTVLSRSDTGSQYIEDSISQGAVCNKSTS
As to the kind of experiment: Agonist activity at human LPA3 receptor transfected in RH7777 cells assessed as mobilization of Ca2+ by fluorometric analysis. The class given is functional, cell-based.

Experiment [3] addresses T3, Lysophosphatidic acid receptor 2 (Homo sapiens, UniProt Q9HBW0). Briefly: Antagonist activity at human LPA2 receptor expressed in RH7777 cells assessed as inhibition of LPA-induced calcium mobilization by Fura-2 AM probe-based fluorometric analysis. The class given is functional, cell-based.
Experiment [4] deals with T2, Lysophosphatidic acid receptor 3. Briefly: Antagonist activity at human LPA3 receptor expressed in RH7777 cells assessed as inhibition of LPA-induced calcium mobilization by Fura-2 AM probe-based fluorometric analysis. The class given is functional, cell-based. On the technique in general: Calcium flux is commonly read through the fluorescence of an indicator in the cells.

For experiment [5], the target named is T4, Lysophosphatidic acid receptor 4 (Homo sapiens, UniProt Q99677). Briefly: Antagonist activity at human LPA4 receptor expressed in CHO cells assessed as inhibition of LPA-induced calcium mobilization by Fura-2 AM probe-based fluorometric analysis. The class given is functional, cell-based.
T4 sequence (Q99677 whole entry): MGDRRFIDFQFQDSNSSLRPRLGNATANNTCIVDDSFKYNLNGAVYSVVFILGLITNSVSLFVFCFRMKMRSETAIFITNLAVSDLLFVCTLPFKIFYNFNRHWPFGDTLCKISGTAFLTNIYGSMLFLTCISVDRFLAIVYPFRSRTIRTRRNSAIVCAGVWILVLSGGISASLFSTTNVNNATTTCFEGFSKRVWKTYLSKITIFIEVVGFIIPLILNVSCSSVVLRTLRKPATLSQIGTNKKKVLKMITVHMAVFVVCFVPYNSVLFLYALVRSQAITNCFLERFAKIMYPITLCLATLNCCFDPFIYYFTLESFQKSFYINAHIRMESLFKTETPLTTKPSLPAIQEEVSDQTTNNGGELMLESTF
For experiment [6], the target named is T1, Lysophosphatidic acid receptor 1. Briefly: Antagonist activity at human LPA1 receptor expressed in RH7777 cells assessed as inhibition of LPA-induced calcium mobilization by Fura-2 AM probe-based fluorometric analysis. The class given is functional, cell-based.
For experiment [7], the target named is T2, Lysophosphatidic acid receptor 3. As to the kind of experiment: Antagonist activity at human LPA3 receptor expressed in CHO cells assessed as inhibition of LPA-induced calcium mobilization preincubated for 30 mins followed by LPA induction by FLIPR Calcium 4 dye-based fluorometric analysis. The class given is functional, cell-based.
Experiment [8] concerns the target T1, Lysophosphatidic acid receptor 1. As to the kind of experiment: Antagonist activity at human LPA1 receptor expressed in CHO cells assessed as inhibition of LPA-induced calcium mobilization preincubated for 30 mins followed by LPA induction by FLIPR Calcium 4 dye-based fluorometric analysis. The class given is functional, cell-based.
Experiment [9] shares this target. Briefly: Agonist activity at human LPA1 receptor transfected in HEK293T cells after 30 mins by GTP[gamma-35S] binding assay. The class given is cell-based, HEK-293T. (In general: GTPγS is a poorly hydrolysed GTP analogue; its binding reports G protein activation.)
The target in experiment [10] is T2, Lysophosphatidic acid receptor 3. Briefly: Agonist activity at human LPA3 receptor transfected in HEK293T cells after 30 mins by GTP[gamma-35S] binding assay. The experiment is classed as cell-based, HEK-293T.
The target of experiment [11] is T3, Lysophosphatidic acid receptor 2. Briefly: Agonist activity at human LPA2 receptor transfected in HEK293T cells after 30 mins by GTP[gamma-35S] binding assay. The class given is cell-based, HEK-293T.
Experiment [12] deals with Lysophosphatidic acid receptor 1/lysophosphatidic acid receptor 3 (Rattus norvegicus, UniProt Q8K5E0+P61794). Briefly: Antagonist activity at LPA1/LPA3 receptor (unknown origin). The class given is protein assay, Homo sapiens.
For experiment [13], the target named is T2, Lysophosphatidic acid receptor 3. Briefly: Antagonist activity at human LPA3 receptor transfected in HEK293T cells. The class given is cell-based, HEK-293T.
The target in experiment [14] is Lysophosphatidic acid receptor 1 (Mus musculus, UniProt P61793). Briefly: Antagonist activity at mouse LPA1 receptor transfected in HEK293T cells. The class given is cell-based, HEK-293T.
Lysophosphatidic acid receptor 1 (Mus musculus, UniProt P61793), sequence (P61793 whole entry): as the sequence (Q92633 whole entry) above, with I4A, I8S, P22Q, H40Y, I61V, E193D, N194H, I269V, S331N, T335N counted along it
A short description of experiment [15]: Displacement of [32P]diazirine-LPA from LPA receptor in mouse N1E-115 cells preincubated for 1 hr in dark followed by UV irradiation for 5 mins by scintillation counting analysis. The experiment is classed as cell-based.
Experiment [16] addresses Lysophosphatidic acid receptor 5 (Homo sapiens, UniProt Q9H1C0). Briefly: Antagonist activity at human LPA5 receptor expressed in rat B103 cells assessed as inhibition of LPA-induced calcium mobilization preincubated for 30 mins followed by LPA induction by FLIPR Calcium 4 dye-based fluorometric analysis. The experiment is classed as functional, cell-based.
Experiment [17] concerns the target T4, Lysophosphatidic acid receptor 4. As to the kind of experiment: Antagonist activity at human LPA4 receptor expressed in rat B103 cells assessed as inhibition of LPA-induced calcium mobilization preincubated for 30 mins followed by LPA induction by FLIPR Calcium 4 dye-based fluorometric analysis. The class given is functional, cell-based.
Experiment [18] has as its target T3, Lysophosphatidic acid receptor 2. Briefly: Antagonist activity at human LPA2 receptor expressed in rat B103 cells assessed as inhibition of LPA-induced calcium mobilization preincubated for 30 mins followed by LPA induction by FLIPR Calcium 4 dye-based fluorometric analysis. The class given is functional, cell-based.
Experiment [19] has the same target. Briefly: Antagonist activity at human LPA2 receptor expressed in CHO cells assessed as inhibition of LPA-induced calcium mobilization preincubated for 30 mins followed by LPA induction by FLIPR Calcium 4 dye-based fluorometric analysis. The experiment is classed as functional, cell-based.
Experiment [20] has as its target T1, Lysophosphatidic acid receptor 1. Briefly: Antagonist activity at human LPA1 receptor expressed in CHO cells assessed as inhibition of LPA-induced calcium mobilization preincubated with protein followed by LPA induction measured for 2 mins by Fluo-4 dye-based FLIPR assay. The class given is functional, cell-based.

T3 sequence (Q9HBW0 whole entry): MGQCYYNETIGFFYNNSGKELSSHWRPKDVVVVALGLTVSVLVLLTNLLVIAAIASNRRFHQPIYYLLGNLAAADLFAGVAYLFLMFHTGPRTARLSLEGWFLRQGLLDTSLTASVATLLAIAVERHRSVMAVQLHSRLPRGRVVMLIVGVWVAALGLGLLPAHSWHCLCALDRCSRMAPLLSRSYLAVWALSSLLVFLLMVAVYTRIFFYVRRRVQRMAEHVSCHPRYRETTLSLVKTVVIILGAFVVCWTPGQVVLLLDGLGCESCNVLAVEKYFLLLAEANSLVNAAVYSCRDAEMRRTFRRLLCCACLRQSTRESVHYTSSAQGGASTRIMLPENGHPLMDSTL
Lysophosphatidic acid receptor 5, sequence (Q9H1C0 whole entry): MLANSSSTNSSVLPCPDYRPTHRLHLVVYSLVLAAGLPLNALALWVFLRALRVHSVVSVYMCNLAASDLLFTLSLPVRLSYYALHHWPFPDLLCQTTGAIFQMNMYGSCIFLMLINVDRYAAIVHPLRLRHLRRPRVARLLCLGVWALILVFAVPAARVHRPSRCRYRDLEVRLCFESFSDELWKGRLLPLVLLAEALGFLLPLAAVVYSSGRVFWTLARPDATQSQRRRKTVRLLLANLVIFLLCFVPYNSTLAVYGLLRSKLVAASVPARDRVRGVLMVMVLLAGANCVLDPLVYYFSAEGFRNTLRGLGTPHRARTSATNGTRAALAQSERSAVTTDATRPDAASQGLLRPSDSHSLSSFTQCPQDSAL

One may read the EC50 as the concentration needed to bring the measured effect to its halfway point. In the case of `CCCCCCCC/C=C\CCCCCCCCOC[C@@H](COP(O)(O)=S)OC`, the values for the 50% effective concentration (EC50) in experiment [1] and in [2] were 571 nM and 80 nM, respectively.
Usually IC50 stands for the concentration needed to halve the response being measured. For the compound `CCCCCC/C=C\CCCCCCCC(=O)OC[C@@H](O)CC(Br)P(=O)(O)O` (some centres not stated), the 50% inhibitory concentration (IC50) in experiment [3] amounted to 1420 nM; in experiment [4] it was 1160 nM; in experiment [5], 266 nM; in experiment [6], 1500 nM.
For `Cc1nsc(-c2ccc(-c3ccc(CC(=O)O)cc3)cc2)c1NC(=O)O[C@H](C)c1ccccc1Cl`, the values for the IC50 in experiment [7] and in experiment [8] were above 500 nM and below 50 nM, respectively.
In experiment [9], `CCCCCCCC/C=C\CCCCCCCC(=O)NCCSP(=O)(O)O` showed a 50% effective concentration (EC50) of 318 nM.
`CCCCCCCC/C=C\CCCCCCCC(=O)OC[C@@H](COP(O)(O)=S)OC` displayed a 50% effective concentration (EC50) in experiment [10] of 276 nM.
As for `CCCCCCCC/C=C\CCCCCCCC(=O)NCCOP(O)(O)=S`, the half-maximal effective concentration (EC50) in experiment [9] was found to be 40 nM; in experiment [11], 108 nM.
`COc1ccc(C(=O)NC2(C(=O)O)Cc3ccccc3C2)cc1OCCc1cccc(C)c1` [FIPAXALPARANT]: the IC50 in experiment [12] is recorded as below 100 nM.
As for `CCCCCCCC/C=C\CCCCCCCC(=O)N[C@H](COP(=O)(O)O)Cc1ccc(OCc2ccccc2)cc1`, the half-maximal inhibitory concentration (IC50) was 6450 nM in experiment [13] and 5210 nM in experiment [14].
With `CCCCCCCC/C=C\CCCCCCCC(=O)OC[C@@H](O)COP(=O)(O)O` [LYSOPHOSPHATIDIC ACID], the IC50 in experiment [15] stood at 10 nM.
Take `Cc1noc(-c2ccc(-c3ccc(CC(=O)O)cc3)cc2)c1NC(=O)O[C@H](C)c1ccccc1`: the IC50 in [16] is above 8000 nM; in experiment [17], above 8000 nM; in experiment [7], above 8000 nM; in experiment [18], above 8000 nM; in experiment [8], 25 nM.
Consider `Cc1noc(-c2ccc(-c3ccc(CC(=O)O)cc3)cc2)c1NC(=O)O[C@H](C)c1ccccc1Cl`, for which the figures for the half-inhibitory concentration (IC50) in [7], in [19] and in experiment [8] were 1600 nM, 1700 nM and 17 nM, respectively.
In the case of `COc1ccc([C@@H](O)C(=O)N(CCCc2ccccc2)Cc2nc(C(=O)NS(C)(=O)=O)c(C)s2)c(F)c1`, the half-maximal inhibitory concentration (IC50) in [20] stood at 6.6 nM.
Take `CCCCCCCC/C=C\CCCCCCCCOC[C@H](COP(O)(O)=S)OC`: the results for the EC50 in experiment [1] and in experiment [2] were 790 nM and 62 nM, respectively.
